Laboratory results as given in patent US20140357512A1, “HISTONE DEACETYLASE (HDAC) BIOMARKERS IN MULTIPLE MYELOMA” (priority 2013, published 2014).

System: human myeloma cell line MM.1S
Assay: SILAC acetylated-lysine peptide profiling, HDAC inhibitor vs DMSO (light/heavy ratio)
Assay type: cell-based
Description: An embodiment of the invention comprises utilizing the SILAC method in order to quantitate changes in protein expression between two or more populations of cells. The SILAC method is a technique based on mass spectrometry that detects differences in protein abundance among samples using non-radioactive isotopic labeling. The SILAC method is known in the art, and described in detail in Ong et al., “Stable Isotope Labeling by Amino Acids in Cell Culture, SILAC, as a Simple and Accurate Approach to Expression Proteomics”, Molecular & Cellular Proteomics, vol. 1, pp. 376-386 (2002), which is incorporated herein by reference in its entirety.
Briefly, the SILAC method involves growing two populations of cells in cell culture. The first population of cells is grown in growth media containing normal amino acids (“normal media”). The second population of cells is grown in media lacking a standard essential amino acid (such as lysine), but is then supplemented with a non-radioactive, isotopically labeled form of that essential amino acid (such as lysine labeled with ^13C atoms, rather than normal ^12C atoms), which is called “heavy media”. When the two populations of cells are each growing in the medium, they incorporate the amino acids into all of their proteins. The growth of cells maintained in the heavy media is no different from that in normal media. All peptides containing the heavy amino acids are heavier than their normal counterparts. The cells from each of the two populations of cells are lysed. The lysates from each of the two cell populations are then combined. The combined cell lysates are then analyzed by mass spectrometry. Pairs of chemically identical peptides of different stable isotope composition can be differentiated in a mass spectrometer due to their difference in mass. The ratio of peak intensities in the mass spectrum for such peptide pairs reflects the abundance ratio for the two proteins.
This example describes SILAC studies that were performed to compare the effects of three different HDAC inhibitors (Compound A, Compound B, and tubastatin A) to a control on a human multiple myeloma cell line. The HDAC inhibitors were also compared amongst themselves to determine differences in their effects.
A human myeloma cell line MM.1S was grown using either ^12C (light) or ^13C (heavy) lysine containing culture medium. The “heavy” cells were treated with DMSO as the control, and the “light” cells were treated with a single HDAC inhibitor at 37° C. for 6 hours. The heavy and light cells were lysed, and the lysates were mixed in 1:1 ratio and digested with the protease trypsin. The acetylated lysine containing peptides (due to the action of the HDAC inhibitor) in the digested peptide pool were captured by a non-specific anti-acetylated lysine antibody cocktail (the antibodies identify both light and heavy acetylated peptides), and subjected to mass spectrometry analysis in order to identify thousands of individual peptides.
Thousands of peptides were identified in pairs (^12C and ^13C) due to their known mass differences. The amino acid sequence and quantitative ratio (Light/Heavy) of a given peptide in two differentially treated cell lysates were then determined and annotated with their possible protein (gene) sources.
As stated above, three HDAC inhibitors (Compound A, Compound B, and Tubastatin A) were used. Thus, the SILAC method was performed three times, with a different HDAC inhibitor compared to a control each time. Accordingly, there are three pairs of quantitative data in the table below, i.e., Compound A:DMSO, Compound B:DMSO, and Tubastatin A:DMSO. A cut-off of 1.30 fold of change (increase or decrease) was then used to determine “changed” or “+” in the table, and any peptides with a fold of change less than 1.3 fold were determined to be “unchanged” or “0” in the table. Those peptides that were not identified were marked as “NA” in the table. […]

SMILES: O=C(CCCCCCNC(=O)c1cnc(N(c2ccccc2)c2ccccc2)nc1)NO [Compound A, 2-(diphenylamino)-N-(7-(hydroxyamino)-7-oxoheptyl)pyrimidine-5-carboxamide]
- L/H ratio of acetylated peptide (ac)[…](ac)AAK (SEQ ID NO: 6) (VDAC3 [12], log 2 scale, drug vs DMSO): 0.00
- L/H ratio of acetylated peptide YK(ac)[…] (SEQ ID NO: 117) (VDAC3 [63], log 2 scale, drug vs DMSO): 0.00
- light to heavy ratio (L/H ratio) of acetylated peptide, log 2 scale (VGIVGK(ac)YGTR (SEQ ID NO: 250), 60S ribosomal protein L37a [13], RPL37A): −0.44
- L/H ratio of acetylated peptide TNEK(ac)VELQELNDR (SEQ ID NO: 122) (VIM [104], log 2 scale, drug vs DMSO): 0.00
- L/H ratio of acetylated peptide FANYIDK(ac)VR (SEQ ID NO: 118) (VIM [120], log 2 scale, drug vs DMSO): 0.00
- L/H ratio of acetylated peptide […](ac)GQGK (SEQ ID NO: 119) (VIM [139], log 2 scale, drug vs DMSO): 0.00
- L/H ratio of acetylated peptide SK(ac)[…] (SEQ ID NO: 121) (VIM [294], log 2 scale, drug vs DMSO): 0.00
- L/H ratio of acetylated peptide LQDEIQNMK(ac)EEMAR (SEQ ID NO: 120) (VIM [373], log 2 scale, drug vs DMSO): 0.00
- light to heavy ratio (L/H ratio) of acetylated peptide […](ac)QLFR (SEQ ID NO: 321) (Vesicle-trafficking protein SEC22b [38], SEC22B, drug:DMSO): 1.00 log 2
- light to heavy ratio (L/H ratio), log 2 scale, acetylated peptide EK(ac)LQEEMLQR (SEQ ID NO: 762) (Vimentin [188], gene VIM, drug:DMSO): 0.92
- light to heavy ratio (L/H ratio) of acetylated peptide TLLIK(ac)TVETR (SEQ ID NO: 269) (Vimentin [445], VIM, drug:DMSO): 0.45 log 2
- light to heavy ratio (L/H ratio) of acetylated peptide IAAYK(ac)SILQER (SEQ ID NO: 531) (X-ray repair cross-complementing protein 5 [265], gene XRCC5, inhibitor:DMSO): −0.41 log 2
- light to heavy ratio (L/H ratio) of acetylated peptide EEAIK(ac)FSEEQR (SEQ ID NO: 509) (X-ray repair cross-complementing protein 5 [648], gene XRCC5, inhibitor:DMSO): −0.60 log 2
- light to heavy ratio (L/H ratio) of acetylated peptide FNNFLK(ac)ALQEK (SEQ ID NO: 545) (X-ray repair cross-complementing protein 5 [660], gene XRCC5, inhibitor:DMSO): 0.39 log 2
- light to heavy ratio (L/H ratio) of acetylated peptide […](ac)HFQD (SEQ ID NO: 355) (X-ray repair cross-complementing protein 6 [605], XRCC6, drug:DMSO): 0.00 log 2
- L/H ratio of acetylated peptide ALQEK(ac)VEIK (SEQ ID NO: 123) (XRCC5 [665], log 2 scale, drug vs DMSO): 0.00
- light to heavy ratio (L/H ratio) of acetylated peptide, log 2 scale (YNCDK(ac)MICR (SEQ ID NO: 254), Ubiquitin-605 ribosomal protein L40 [93], UBA52): 0.38
- light to heavy ratio (L/H ratio) of acetylated peptide YFLDK(ac)TLTSR (SEQ ID NO: 293) ([3-methyl-2-oxobutanoate dehydrogenase [lipoamide]] kinase mitochondrial [192], BCKDK, drug:DMSO): 0.68 log 2
- L/H ratio of acetylated peptide ([…](ac)MVAAK (SEQ ID NO: 491), Cyclic AMP-dependent transcription factor ATF-4 [267], ATF4): −1.00 log 2
- L/H ratio of acetylated peptide ([…](ac)YPLR (SEQ ID NO: 493), Isoform 1 of NADH-cytochrome b5 reductase 3 [42], CYB5R3): −1.00 log 2
- light to heavy ratio (L/H ratio) of acetylated peptide SAYFAEK(ac)LYK (SEQ ID NO: 292) (annexin A4 [255], ANXA4, drug:DMSO): 0.67 log 2
- light to heavy ratio (L/H ratio) of acetylated peptide TLFVK(ac)[…] (SEQ ID NO: 511) (cDNA FLJ45706 fis clone FEBRA2028457 highly similar to Nucleolin [470], gene NCL, inhibitor:DMSO): −0.59 log 2
- light to heavy ratio (L/H ratio) of acetylated peptide ILMSK(ac)PVLSGGTGR (SEQ ID NO: 291) (cDNA FLJ55380 highly similar to Protein kinase C-binding protein 1 [440], ZMYND8, drug:DMSO): 0.67 log 2
- light to heavy ratio (L/H ratio) of acetylated peptide YDGK(ac)WEVEEMK (SEQ ID NO: 274) (cDNA FLJ55574 highly similar to Calnexin [138], CANX, drug:DMSO): 0.48 log 2
- light to heavy ratio (L/H ratio) of acetylated peptide LNK(ac)PFLFDTK (SEQ ID NO: 327) (cDNA FLJ55574 highly similar to Calnexin [172], CANX, drug:DMSO): 0.00 log 2
- light to heavy ratio (L/H ratio) of acetylated peptide LIGK(ac)QGR (SEQ ID NO: 629) (cDNA FLJ56047 highly similar to A kinase anchor protein 1 mitochondrial [667], gene AKAP1, inhibitor:DMSO): 0.49 log 2
- light to heavy ratio (L/H ratio) of acetylated peptide LLASK(ac)SLLNR (SEQ ID NO: 322) (cDNA FLJ56303 highly similar to Translocon-associated protein subunit beta [46], SSR2, drug:DMSO): 1.00 log 2
- light to heavy ratio (L/H ratio) of acetylated peptide LPSSTK(ac)SGWPR (SEQ ID NO: 500) (cDNA FLJ75110 highly similar to Homo sapiens PHD finger protein 15 (PHF15) mRNA [38], gene PHF15, inhibitor:DMSO): −0.78 log 2
- light to heavy ratio (L/H ratio) of acetylated peptide IINEVSK(ac)[…] (SEQ ID NO: 341) (cDNA FLJ77177 highly similar to Homo sapiens arginine-rich mutated in early stage tumors (ARMET) mRNA [97], MANF, drug:DMSO): 0.00 log 2
- light to heavy ratio (L/H ratio) of acetylated peptide TNVPVK(ac)LFAR (SEQ ID NO: 348) (cDNA FLJ77422 highly similar to Homo sapiens RNA binding protein autoantigenic (hnRNP-associated with lethal yellow homolog (mouse)) transcript variant 1 mRNA (Fragment) [165], RALY, drug:DMSO): 0.00 log 2
- light to heavy ratio (L/H ratio) of acetylated peptide EIAQEFK(ac)TDLR (SEQ ID NO: 337) (histone cluster 2 H3 pseudogene 2 [80], HIST2H3PS2, drug:DMSO): 0.00 log 2
- light to heavy ratio (L/H ratio) of acetylated peptide GSK(ac)[…] (SEQ ID NO: 265) (membrane-associated progesterone receptor component 2 [159], PGRMC2, drug:DMSO): 0.43 log 2
- light to heavy ratio (L/H ratio) of acetylated peptide SK(ac)SDPIMLLK (SEQ ID NO: 255) (pyruvate dehydrogenase E1 component subunit alpha somatic form mitochondrial isoform 2 precursor [351], PDHA1, drug:DMSO): 0.39 log 2
- light to heavy ratio (L/H ratio) of acetylated peptide VTNLLMLK(ac)GK (SEQ ID NO: 350) (regulator of differentiation 1 isoform 2 [64], ROD1, drug:DMSO): 0.00 log 2
- light to heavy ratio (L/H ratio) of acetylated peptide LTSLNVK(ac)YNNDK (SEQ ID NO: 590) (regulator of differentiation 1 isoform 2 [236], gene ROD1, inhibitor:DMSO): 0.44 log 2
- light to heavy ratio (L/H ratio) of acetylated peptide GWLK(ac)[…] (SEQ ID NO: 278) (triosephosphate isomerase isoform 2 [231], TPI1, TPI1P1, drug:DMSO): 0.54 log 2
